The values that follow come from patent US12473282B2, “Biphenyl fluorine double bond derivative, preparation method therefor, and pharmaceutical application thereof” (Abbisko Therapeutics Co., Ltd., priority 2020, dated 2025).

Data set [1] concerns the target interaction between PD-1 and PD-L1 (Homo sapiens (Human), UniProt Q9NZQ7). In words: PD1-PDL1 HTRF binding activity test (Cisbio PD-1/PD-L1 binding assay kit). Here is the method: I. PD1-PDL1 HTRF Binding Activity Test
The effect of compounds of the examples of the present invention on the interaction between PD-1 and PD-L1 was determined by the PD-1/PD-L1 binding assay kit from Cisbio (#64ICP01PEG or 64ICP01PEH). The detailed experimental process was as follows: • 1. Pre-diluted compound solution, 4 μL of Tag1-PD-L1 and 4 μL of Tag2-PD1 were added to each well of a 384-well plate; • 2. After the mixture was incubated at room temperature for 15 min, 5 μL of anti-Tag1-Eu3+ antibody and 5 μL of anti-Tag2-XL665 antibody were then added; • 3. After incubated for 2 hrs at room temperature or overnight at 4° C., plates were read on Envision of Pelkin Elmer; and readings at 665 nm and 620 nm were recorded, and the ratio of the two readings was taken as a reading for each well; • 4. The reading of each well after compound treatment was compared with the reading of DMSO treated wells to obtain the percent inhibition of the compound; • 5. IC50 values of compounds and positive compounds of the examples of the present invention were determined by non-linear regression analysis of percent inhibition at different compound concentrations. II. Jurkat Reporter Gene Cellular Assay
Background: Time-resolved FRET reads energy transfer from a long-lived donor to a nearby acceptor.

A short description of data set [2]: Jurkat reporter gene cellular assay. The data set is classed as cell-based. The note with it: Homo sapiens; Jurkat/NF-κB-luc/PD1 + Raji-PD-L1 coculture, OKT3 1 μg/mL, 6 hrs, activation fold; read-out: Cell Activity EC50. The method in brief: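 Jurkat cells stably expressing human PD-1 and NF-κB-luciferase co-cultured with PD-L1-expressing Raji cells (5×10^4 each/well) under OKT3 (1 μg/mL final) with compound. Raji cells preincubated 20 min; luminescence read 6 h after Jurkat addition. EC50 from non-linear regression of fold activation over DMSO.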
A general note: In a reporter assay the amount or activity of a reporter protein is the signal.

The nature of data set [3]: Pharmacokinetic assay in mice. The format is in vivo. Conditions: male, mouse; ICR mice, PO 10 mg/kg, plasma, original compound detected. Here is the method: III. Pharmacokinetic Assay in Mice
The purpose of this study was to study the pharmacokinetic behaviors of some compounds of the present invention, and administration routes were: per oral administration (PO) to ICR mice at a dose of 10 mg/kg.
The compounds used in this test came from the compounds of the specific examples of the present invention.
ICR mice, male, N=3, with the original source of Shanghai Sippr-BK Laboratory Animal Co. Ltd.
2.3 Preparation and Administration of Drug
The compounds were weighed, and dissolved in a solvent of 0.5% SDS+0.5% CMCNa. The mixture solutions were mixed well by shaking and ultrasonic treatment to obtain colorless clear solutions. The solutions were orally administered to nine mice after an overnight fast. The dosage of administration was 10 mg/kg.
1) With about 90 μL/time point, blood was drawn from the submaxillary vein, and heparin sodium was added for anticoagulation. The blood samples were placed onto the ice, and were centrifuged (centrifugation conditions: 8000 r/min, 6 min, 2-8° C.) within 1 hr to obtain plasmas.
2) The time points for blood sampling were at 0 hr, 0.25 hr, 0.5 hr, 1 hr, 2 hrs, 4 hrs, 6 hrs, 8 hrs and 24 hrs after administration. The samples were stored in a refrigerator at −20° C.
3) 40 μL of plasma sample was added to 160 μL of cold acetonitrile containing an internal standard, and the mixture solution was vortexed for 3 min and centrifuged at 11,000 r/min for 5 min.
4) 100 μL of supernate was taken and added to 100 μL of water, and 5 μL of the sample was taken and analyzed by LC/MS/MS.
Only the original compounds were analyzed for the compounds from the examples of the present invention and the reference compound from Example 158 of WO2020011209A1; and both the original compounds and possible products of ester hydrolysis, namely Example 217, were analyzed for the reference compound from Example 216 of WO2020011209A1.

Chain of interaction between PD-1 and PD-L1 (Q9NZQ7 19-238): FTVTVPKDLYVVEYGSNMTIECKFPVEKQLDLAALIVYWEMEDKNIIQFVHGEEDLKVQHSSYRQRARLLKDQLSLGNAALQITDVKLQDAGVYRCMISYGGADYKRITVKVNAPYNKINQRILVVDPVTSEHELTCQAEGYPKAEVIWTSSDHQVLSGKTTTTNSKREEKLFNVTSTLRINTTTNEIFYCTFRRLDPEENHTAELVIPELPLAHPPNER

For the compound `Cc1c(/C=C(\F)c2nc3c(n2C)CCN(C(C)C)C3)cccc1-c1cccc(NC(=O)c2nc3c(n2C)CCN(CCC24CCC(C(=O)O)(CC2)C4)C3)c1C` [Example 1, (Z)-4-(2-(2-((3′-(2-fluoro-2-(5-isopropyl-1-methyl-4,5,6,7-tetrahydro-1H-imidazo[4,5-c]pyridin-2-yl)vinyl)-2,2′-dimethyl-[1,1′-biphenyl]-3-yl)carbamoyl)-1-methyl-1,4,6,7-tetrahydro-5H-imidazo[4,5-c]pyridin-5-yl)ethyl)bicyclo[2.2.1]heptane-1-carboxylic acid], the IC50 in data set [1] came out at 0.688 nM. For the same compound, the concentration giving a half-maximal response (EC50) in data set [2] was found to be 258 nM. Also, in data set [3], the AUC(0-t) is 2490 ng·h/mL, the highest level (Cmax) was 323 ng/mL, the MRT came to 8.3 h and the time to peak (Tmax) came to 4 h. In data set [3], this compound showed a half-life of 5.2 h.

The compound `COc1cc(/C(F)=C/c2cccc(-c3cccc(NC(=O)c4nc5c(n4C)CCN(CCC46CCC(C(=O)O)(CC4)C6)C5)c3Cl)c2Cl)ncc1CN1CCC(C)(O)C1` (centres unmarked) [Example 49, (Z)-4-(2-(2-((2,2′-dichloro-3′-(2-fluoro-2-(5-((3-hydroxy-3-methylpyrrolidin-1-yl)methyl)-4-methoxypyridin-2-yl)vinyl)-[1,1′-biphenyl]-3-yl)carbamoyl)-1-methyl-1,4,6,7-tetrahydro-5H-imidazo[4,5-c]pyridin-5-yl)ethyl)bicyclo[2.2.1]heptane-1-carboxylic acid] came in with a concentration for half-maximal inhibition (IC50) in data set [1] of 0.232 nM. Besides, in data set [2], the concentration for a half-maximal effect (EC50) was found to be 46.2 nM. Further, in data set [3], the AUC(0-t) was 15100 ng·h/mL, the concentration peaked (Cmax) at 1010 ng/mL, the mean residence time (MRT) is 7.4 h and the Tmax amounted to 2 h. The same compound had a half-life in data set [3] of 4 h.

In turn, `COc1cc(/C(F)=C/c2cccc(-c3cccc(NC(=O)c4nc5c(n4C)CCN(CCC46CCC(C(=O)O)(CC4)C6)C5)c3Cl)c2Cl)ncc1CN1CCCC1` [Example 58, (Z)-4-(2-(2-((2,2′-dichloro-3′-(2-fluoro-2-(4-methoxy-5-(pyrrolidin-1-ylmethyl)pyridin-2-yl)vinyl)-[1,1′-biphenyl]-3-yl)carbamoyl)-1-methyl-1,4,6,7-tetrahydro-5H-imidazo[4,5-c]pyridin-5-yl)ethyl) bicyclo[2.2.1]heptane-1-carboxvlic acid] had an IC50 in data set [1] of 0.193 nM. In data set [2], the EC50 is 44.1 nM. Moreover, in data set [3], the area under the curve AUC(0-t) worked out at 1950 ng·h/mL, the peak level (Cmax) was 173 ng/mL, the MRT amounted to 9.6 h and the Tmax was 6 h. In data set [3], this compound had a half-life of 5 h.

Take `COc1cc(/C(F)=C/c2cccc(-c3cccc(NC(=O)c4nc5c(n4C)CCN(CCC46CCC(C(=O)O)(CC4)C6)C5)c3Cl)c2Cl)ncc1CN1CC[C@@H](C(=O)O)C1` [Example 73, (R,Z)-1-((6-(2-(3′-(5-(2-(4-carboxybicyclo[2.2.1]heptan-1-yl)ethyl)-1-methyl-4,5,6,7-tetrahydro-1H-imidazo[4,5-c]pyridine-2-carboxamido)-2,2′-dichloro-[1,1′-biphenyl]-3-yl)-1-fluorovinyl)-4-methoxypyridin-3-yl)methyl)pyrrolidine-3-carboxylic acid]: in data set [1], the IC50 is 0.186 nM. The EC50 in data set [2] came to 50.6 nM. Further, in data set [3], the AUC(0-t) is 590 ng·h/mL, the concentration peaked (Cmax) at 442 ng/mL, the mean residence time MRT was determined as 2 h and the Tmax came to 0.5 h. The compound also showed a half-life in data set [3] of 1.1 h.

Consider `COc1cc(/C(F)=C/c2cccc(-c3cccc(NC(=O)c4nc5c(n4C)CCN(CCC46CCC(C(=O)O)(CC4)C6)C5)c3Cl)c2Cl)ncc1CN1CC[C@@](C)(C(=O)O)C1` [Example 75, (R,Z)-1-((6-(2-(3′-(5-(2-(4-carboxybicyclo[2.2.1]heptan-1-yl)ethyl)-1-methyl-4,5,6,7-tetrahydro-1H-imidazo[4,5-c]pyridine-2-carboxamido)-2,2′-dichloro-[1,1′-biphenyl]-3-yl)-1-fluorovinyl)-4-methoxypyridin-3-yl)methyl)-3-methylpyrrolidine-3-carboxylic acid], for which the IC50 in data set [1] is 0.185 nM. In data set [2], the concentration giving a half-maximal response (EC50) was 54.4 nM. In data set [3], the exposure AUC(0-t) was 2650 ng·h/mL, the maximum concentration (Cmax) worked out at 806 ng/mL, the mean residence time (MRT) was 2.9 h and the Tmax was found to be 1.8 h. This compound also gave a half-life in data set [3] of 1.8 h.

Usually IC50 stands for the concentration at which inhibition is half-maximal. A higher IC50 goes with lower potency. Broadly, the EC50 is the concentration needed to bring the measured effect to its halfway point. The AUC(0-t) is exposure summed from dosing to a finite time, without extrapolation to infinity. Low readings indicate low exposure, high ones high exposure. What is called Cmax is the maximum level reached in the sampled fluid or tissue. By MRT is commonly meant the average time that molecules of a dose stay in the body. The term Tmax denotes the time at which the peak concentration occurs. The half-life is the time in which the quantity being followed falls by half.
